Source: patent US20150125550A1, “APPLICATION OF 2,9-DI-SEC-BUTYL-1,10-PHENANTHROLINE AS A GLIOBLASTOMA TUMOR CHEMOTHERAPY” (priority 2013, published 2015)
Read-outs that look alike come from different tables or passages of the source.

Experiments:
[1] = test system: GL-26 glioma cells; test: SRB growth assay, GL-26 glioma cells, 48 hr drug incubation; type: cell-based, murine (C57BL/6); conditions: for IC50: SRB, read-out: IC50 against GL-26 tumor cells
Experimental: (§1) The murine (C57BL/6) glioma cell line, GL-26, which is highly tumorigenic in the C57BL/6 mice. GL-26 cells were cultured in DMEM/F12 supplemented with 10% FCS, 1% penicillin/streptomycin, 1% L-glutamine and 1% non-essential amino acids. Human foreskin fibroblasts (HFFs) were cultured in DMEM/F12 supplemented with 10% FCS and 1% penicillin/streptomycin. Primary murine astrocytes were purified from C57BL/6 neonate brains and cultured in DMEM/F12 supplemented with 10% FCS, 1% non-essential amino acids, 1% Lglutamine, 50 IU/ml penicillin, […] and 10 mM Hepes buffer.
(§2) The sulforhodamine B (SRB) cytotoxicity assays were adapted from Skehan et al. (22). Briefly, either HFF, primary astrocytes or GL-26 cells were plated in 96-well plates at a density of 4,000 cells/well in a volume of 100 µL overnight at 37° C. and 5% CO2. DMSO stock solutions of SBP, MSBP or TMZ were used at a concentration range of 0.1-25 μM for 48 hr before the supernatant was discarded and the cells were fixed for 1 hr with 10% cold trichloroacetic acid (100 μL, per well). Cells used in recovery assay received fresh media for 48 hrs following the 48 hr drug incubation. The plate was then washed 5 times with de-ionized water, air dried, and stained with 0.4% SRB for 10 min (50 μL, per well). After washing 5 times in 1% acetic acid and air-drying, bound SRB was dissolved in 10 mM unbuffered Tris base (pH 10.5; 100 μL, per well). Bound SRB was then read by absorbance at 492 nm on a SpectraMax plate reader (Molecular Devices). The percent survival was then calculated based upon the absorbance values relative to control wells (0 μM SBP in 0.1% DMSO).

[2] = test system: human foreskin fibroblasts (HFFs); test: SRB toxicity assay on human foreskin fibroblasts; type: cell-based; conditions: Fibroblast
Experimental: as §1, §2

[3] = test system: GL-26 glioma cells; test: Propidium iodide cell cycle analysis by flow cytometry; type: cell-based, murine (C57BL/6); conditions: SBP 48 hours
Experimental: GL-26 cells were plated at 4000 cells/well in a 96 well plate in GL-26 media (DMEM/F12 supplemented with 10% FCS, 1% penicillin/streptomycin, 1% L-glutamine and 1% non-essential amino acids). The cells were treated 1 day post-plating with 0.1-25 μM SBP for 48 hours. The cells were then detached with Trypsin/EDTA (Cellgro), washed and resuspended at 500,000 cells/ml in ice cold Na+/K+ balanced PBS and fixed by gently adding 70% ethanol and incubating for 2 hrs at 4° C. GL-26 cells were then resuspended in 300-500 μl PI/Triton X-100 staining solution: 10 ml of 0.1% (v/v) Triton X-100 (Sigma) in Na+/K+ balanced PBS with 2 mg DNAse-free RNAse A (Sigma) and 0.40 ml of 500 μg/ml PI (Roche). The stain was allowed to incubate at 37° C. for 15 minutes before acquisition on a BD FacsCanto II flow cytometer.

[4] = test system: GL-26 glioma; test: In-vivo intracranial GL-26 glioma model; parameters: species or system C57BL/6 mice
Experimental: Female C57BL/6 mice were obtained from Jackson Laboratories and maintained in a pathogen free environment under IACUC established protocols at the University of California Riverside. Mice were anesthetized with continuous administration of 2.5% isofluorane. Cultured GL-26 cells were harvested by trypsinization and 90,000 GL-26 cells in 3 μL of sterile Na+/K+ balanced PBS were injected intracranially. The injection was administered 1 mm anterior and 2 mm lateral to the junction of the coronal and sagittal sutures (bregma), at a depth of 2 mm using a stereotactic mouse frame. Care was taken in alternating injection order and group assignment (treated vs. non-treated) to assure equal GL-26 cell viability between the two treatment groups. SBP was administered intravenously through the retro-orbital route at a concentration of 10 mg/kg in 200 μL sterile Na+/K+ balanced PBS. Drug was administered one, seven, and 13 days after tumor implantation.
Histology: For brain tumor histology, mice were perfused intracardially with 4% formaldehyde in Na+/K+ balanced PBS and brains were extracted, incubated in 4% formaldehyde overnight followed by 30% sucrose in Na+/K+ balanced PBS. Brains were flash frozen in isopentane, embedded in optimal cutting temperature compound (OCT), cryosectioned in coronal sections (12 μm) and stained with hematoxylin and eosin. Another cohort of equivalently drug-treated mice was used for liver, lung and gut histology. The mice were then sacrificed on day 19, and the liver, lung and gut tissues were collected and placed in 4% formaldehyde in Na+/K+ balanced PBS overnight. The organs were then placed for 48 hrs in 70% EtOH before paraffin embedding and sectioning at 6 μm. Sections were then stained with hematoxylin and eosin and pathology was assessed blindly and independently by a trained pathologist. A TUNEL staining kit was obtained from TREVIGEN (NeuroTACS II In Situ Apoptosis Detection Kit, Cat#4823-30-K) and used for both ex-vivo slices and in-vitro staining according to manufacturers instructions.

[5] = test system: A549 and H1703 lung cancer lines, and 886LN, Tu212, and Tu686 head/neck cancer lines; conditions: head-neck and lung tumor lines; cited from earlier work

IC50 ([1]; Mus musculus, GL26, 48 h): 3 to 6 µM
IC50 ([1]; listed as SBP): 3 µM
SMILES: CCC(C)c1ccc2ccc3ccc(C(C)CC)nc3c2n1 (stereo not drawn) [Compound 1, 2,9-di-sec-butyl-1,10-phenanthroline]
inhibition at 6 µM ([1]; Mus musculus, GL26, 6 μM, read-out: GL-26 cell growth inhibition): 66 ± 1%
inhibition at 25 µM ([1]; Mus musculus, GL26, 25 μM, read-out: GL-26 cell growth inhibition): 67 ± 0.5%
inhibition at 6 µM ([2]; 6 μM, 48 hours, read-out: HFF growth inhibition): ~20%
inhibition at 25 µM ([2]; 25 μM, 48 hours, read-out: HFF growth inhibition): 36.9 ± 1.3%
IC50 ([2]; not reached at 25 μM, read-out: IC50 on non-cancerous human fibroblast cells): > 25 µM
cell cycle effect (propidium iodide) [3]: not arrested in the G1 phase
body weight regained, % of initial weight ([4]; 10 mg/kg i.v. days 1, 7, 13, 19-day trial): 98.1±3.4%
tumor section area (pixel area) at the largest tumor cross-section ([4]; 10 mg/kg i.v. days 1, 7, 13, sacrificed day 19, N=3): 5489±1369
in situ TUNEL staining of brain tumor sections ([4]; day 19): dark brown cytoplasmic and nuclear staining indicative of cell necrosis and increased DNA fragmentation
tumors in treated mice smaller than in untreated control mice ([4]; mouse, in vivo): 5-10 times
IC50 times lower than cisplatin [5]: 20-100 times
IC50 times lower than the parent gold(III) complex [5]: 4-14 times
in-vitro IC50 values [5]: in the nanomolar concentration regime
